Data on 52 compounds can be found in US7087631B2, “Aryltetrazole compounds, and compositions thereof” (Inotek Pharmaceuticals Corporation, priority 2002, dated 2006).

The target in this assay is xanthine oxidase (Homo sapiens, UniProt P47989). As to the kind of experiment: Xanthine oxidase inhibitory activity, 96 well plate, kinetic reading at 295 nm. It counts as biochemical.
Setting [1] is: compound concentration 0.1 μM, 0.1 µM.

xanthine oxidase, sequence (P47989 whole entry, species assumed): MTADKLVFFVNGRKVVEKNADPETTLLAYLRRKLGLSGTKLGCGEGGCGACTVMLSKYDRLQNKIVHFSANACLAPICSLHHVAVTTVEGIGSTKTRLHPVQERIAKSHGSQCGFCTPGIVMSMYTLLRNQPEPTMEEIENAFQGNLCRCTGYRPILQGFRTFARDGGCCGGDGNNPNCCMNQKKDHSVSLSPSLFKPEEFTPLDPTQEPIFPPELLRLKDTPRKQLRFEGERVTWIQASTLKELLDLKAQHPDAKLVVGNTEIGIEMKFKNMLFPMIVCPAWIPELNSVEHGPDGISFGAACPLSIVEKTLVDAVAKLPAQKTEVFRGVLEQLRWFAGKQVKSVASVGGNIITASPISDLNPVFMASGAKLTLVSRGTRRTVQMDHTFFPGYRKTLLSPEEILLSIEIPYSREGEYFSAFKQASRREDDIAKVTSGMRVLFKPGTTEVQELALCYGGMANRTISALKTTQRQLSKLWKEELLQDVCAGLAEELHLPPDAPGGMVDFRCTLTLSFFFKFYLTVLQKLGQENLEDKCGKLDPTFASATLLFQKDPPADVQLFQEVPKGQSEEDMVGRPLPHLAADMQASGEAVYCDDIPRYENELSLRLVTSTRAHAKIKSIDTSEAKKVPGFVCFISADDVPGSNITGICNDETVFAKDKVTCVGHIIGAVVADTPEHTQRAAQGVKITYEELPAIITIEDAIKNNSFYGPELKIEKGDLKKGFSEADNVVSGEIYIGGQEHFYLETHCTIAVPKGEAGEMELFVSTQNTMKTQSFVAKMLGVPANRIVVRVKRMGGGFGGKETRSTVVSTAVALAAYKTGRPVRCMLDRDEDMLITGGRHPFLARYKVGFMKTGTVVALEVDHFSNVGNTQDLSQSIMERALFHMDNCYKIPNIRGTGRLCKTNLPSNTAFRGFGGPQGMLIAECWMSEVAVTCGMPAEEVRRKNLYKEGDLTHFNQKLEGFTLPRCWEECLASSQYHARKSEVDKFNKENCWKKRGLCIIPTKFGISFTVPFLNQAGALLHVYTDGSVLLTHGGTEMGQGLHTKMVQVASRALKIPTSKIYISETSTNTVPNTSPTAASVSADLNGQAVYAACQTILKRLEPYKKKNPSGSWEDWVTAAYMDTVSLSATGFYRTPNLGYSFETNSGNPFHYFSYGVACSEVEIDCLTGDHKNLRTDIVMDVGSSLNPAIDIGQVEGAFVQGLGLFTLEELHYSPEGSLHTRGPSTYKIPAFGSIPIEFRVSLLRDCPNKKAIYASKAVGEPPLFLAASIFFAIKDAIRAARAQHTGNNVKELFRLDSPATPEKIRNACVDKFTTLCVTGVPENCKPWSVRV

For the compound `CC(=O)Nc1ccc(-c2nn[nH]n2)cc1` [Compound FR], the “PERCENT XANTHINE OXIDASE INHIBITION” value (compound concentration 100 μM) is recorded as 40%.
Still for that read-out and setting: in the case of `Fc1ccc(-c2nnn[nH]2)cc1Cl` [Compound HE] it was 33%.
On to `O=C(/C=C/c1ccccc1)Nc1nnn[nH]1` [Compound HN], for which the “PERCENT XANTHINE OXIDASE INHIBITION” value (compound concentration 1 μM) amounted to 10%, the “PERCENT XANTHINE OXIDASE INHIBITION” value (compound concentration 10 μM) is given as 13% and the “PERCENT XANTHINE OXIDASE INHIBITION” value (compound concentration 100 μM) is 42%.
Regarding `O=C(Nc1ccc(F)cc1)c1ccc(-c2nnn[nH]2)cc1` [Compound HX], the “PERCENT XANTHINE OXIDASE INHIBITION” value is 37% (compound concentration 0.03 μM), 59% (compound concentration 0.1 μM) and 92% (compound concentration 1 μM).
On to `CC(=O)c1cccc(NC(=O)c2ccc(-c3nnn[nH]3)cc2)c1` [Compound IA], for which the “PERCENT XANTHINE OXIDASE INHIBITION” value is, setting by setting: (compound concentration 0.03 μM) 31%; (compound concentration 0.1 μM) 54%; (compound concentration 1 μM) 90%.
With `CC(C)COc1ccc(-c2nn[nH]n2)cc1` [Compound IR], the “PERCENT XANTHINE OXIDASE INHIBITION” value is 28% (compound concentration 0.03 μM), 47% (compound concentration 0.1 μM) and 88% (compound concentration 1 μM).
As for `O=C(Nc1ccc(-c2nnn[nH]2)cc1)c1ccccc1` [Compound IT], the “PERCENT XANTHINE OXIDASE INHIBITION” value (compound concentration 0.03 μM) is 7%, the “PERCENT XANTHINE OXIDASE INHIBITION” value (compound concentration 0.1 μM) stood at 15% and the “PERCENT XANTHINE OXIDASE INHIBITION” value (compound concentration 1 μM) is given as 56%.
On to `CC(C)COc1ccc(-c2nnn[nH]2)cc1Br` [Compound JC], for which the “PERCENT XANTHINE OXIDASE INHIBITION” value reads like this: (compound concentration 0.1 μM) 6%; (compound concentration 1 μM) 31%.
For the compound `CC(C)COc1ccc(-c2nnn[nH]2)cc1C#N` [Compound JE], the “PERCENT XANTHINE OXIDASE INHIBITION” value reads like this: (compound concentration 0.03 μM) 12%; (compound concentration 0.1 μM) 32%; (compound concentration 1 μM) 82%.
For the compound `c1ccc(-c2nnn[nH]2)cc1` [FF], the “PERCENT XANTHINE OXIDASE INHIBITION” value (compound concentration 100 μM) was 10%.
The same measure, in the same setting: the figure for `Clc1cccc(-c2nnn[nH]2)c1` [FG] is 34%.
For `Clc1ccc(-c2nnn[nH]2)cc1` [FH], the “PERCENT XANTHINE OXIDASE INHIBITION” value stood at 27% (compound concentration 10 μM) and 69% (compound concentration 100 μM).
For `Brc1ccc(-c2nnn[nH]2)cc1` [FI] the same measures were 21% and 67%.
On the same counts, the results for `COc1ccc(-c2nnn[nH]2)cc1` [FK] are 30% and 71%.
On the same counts, the results for `FC(F)(F)Oc1ccc(-c2nnn[nH]2)cc1` [FL] are 14% and 55%.
In the case of `Fc1ccc(-c2nnn[nH]2)cc1` [FM], the “PERCENT XANTHINE OXIDASE INHIBITION” value is 19% (compound concentration 10 μM) and 78% (compound concentration 100 μM).
Turning to `Cc1ccc(-c2nnn[nH]2)cc1` [FN], the “PERCENT XANTHINE OXIDASE INHIBITION” value runs as follows: (compound concentration 10 μM) 3%; (compound concentration 100 μM) 32%.
As to `Nc1ccc(-c2nnn[nH]2)cc1` [FO], the “PERCENT XANTHINE OXIDASE INHIBITION” value is 3% (compound concentration 10 μM) and 30% (compound concentration 100 μM).
On the same counts, the results for `Fc1ccccc1-c1nnn[nH]1` [FP] are 3% and 21%.
For the compound `CNC(=O)Nc1ccc(-c2nnn[nH]2)cc1` [FS], the “PERCENT XANTHINE OXIDASE INHIBITION” value (compound concentration 100 μM) came to 10%.
As for `CC(=O)c1ccc(-c2nnn[nH]2)cc1` [FU], the “PERCENT XANTHINE OXIDASE INHIBITION” value reads like this: (compound concentration 1 μM) 9%; (compound concentration 10 μM) 54%; (compound concentration 100 μM) 92%.
On the same counts, the results for `CCOC(=O)c1ccc(-c2nnn[nH]2)cc1` [FV] are 64%, 92% and 100%.
Take `COC(=O)c1ccc(-c2nnn[nH]2)cc1` [FW]: the “PERCENT XANTHINE OXIDASE INHIBITION” value was determined as 39% (compound concentration 1 μM), 82% (compound concentration 10 μM) and 100% (compound concentration 100 μM).
On the same counts, the results for `CCCCOC(=O)c1ccc(-c2nnn[nH]2)cc1` [FX] are 73%, 95% and 95%.
As for `O=C(O)c1ccc(-c2nnn[nH]2)cc1` [FY], the “PERCENT XANTHINE OXIDASE INHIBITION” value is given as 11% (compound concentration 1 μM), 56% (compound concentration 10 μM) and 91% (compound concentration 100 μM).
For `CC(C)OC(=O)c1ccc(-c2nnn[nH]2)cc1` [FZ] the same measures were 88%, 97% and 100%.
For `O=C(OCc1ccccc1)c1ccc(-c2nnn[nH]2)cc1` [GA] the same measures were 78%, 100% and 100%.
On the same counts, the results for `O=C(OCC1CC1)c1ccc(-c2nnn[nH]2)cc1` [GB] are 82%, 97% and 100%.
Consider `O=C(Oc1ccccc1)c1ccc(-c2nnn[nH]2)cc1` [GC], for which the “PERCENT XANTHINE OXIDASE INHIBITION” value is, setting by setting: (compound concentration 0.05 μM) 52%; (compound concentration 0.1 μM) 97%; (compound concentration 1 μM) 100%.
As for `O=C(OCc1cccc(Cl)c1)c1ccc(-c2nnn[nH]2)cc1` [GD], the “PERCENT XANTHINE OXIDASE INHIBITION” value by setting is: (compound concentration 1 μM) 79%; (compound concentration 10 μM) 82%; (compound concentration 100 μM) 100%.
As to `O=C(OCc1ccc(Cl)cc1)c1ccc(-c2nnn[nH]2)cc1` [GE], the “PERCENT XANTHINE OXIDASE INHIBITION” value (compound concentration 0.05 μM) is given as 59%, the “PERCENT XANTHINE OXIDASE INHIBITION” value (compound concentration 0.1 μM) was found to be 100% and the “PERCENT XANTHINE OXIDASE INHIBITION” value (compound concentration 1 μM) is 100%.
Consider `CCCCCCOC(=O)c1ccc(-c2nnn[nH]2)cc1` [GF], for which the “PERCENT XANTHINE OXIDASE INHIBITION” value (compound concentration 1 μM) is reported as 28%, the “PERCENT XANTHINE OXIDASE INHIBITION” value (compound concentration 10 μM) is 79% and the “PERCENT XANTHINE OXIDASE INHIBITION” value (compound concentration 100 μM) was 97%.
In the case of `O=C(OC1CCCCC1)c1ccc(-c2nnn[nH]2)cc1` [GH], the “PERCENT XANTHINE OXIDASE INHIBITION” value is, setting by setting: (compound concentration 0.03 μM) 65%; under setting [1], 91%; (compound concentration 1 μM, 1 µM) 100%.
Turning to `O=C(OCC12CC3CC(CC(C3)C1)C2)c1ccc(-c2nnn[nH]2)cc1` [GI], the “PERCENT XANTHINE OXIDASE INHIBITION” value was found to be 75% (compound concentration 0.03 μM), 95% (compound concentration 0.1 μM) and 100% (compound concentration 1 μM).
`O=C(OCC(F)(F)F)c1ccc(-c2nnn[nH]2)cc1` [GJ]: the “PERCENT XANTHINE OXIDASE INHIBITION” value by setting is: (compound concentration 0.01 μM) 12%; (compound concentration 0.1 μM) 59%; (compound concentration 1 μM) 99%.
For `O=C(OCCN1CCOCC1)c1ccc(-c2nnn[nH]2)cc1` [GK] the same measures were 3%, 12% and 46%.
Consider `O=C(OCCN1CCCC1)c1ccc(-c2nnn[nH]2)cc1` [GL], for which the “PERCENT XANTHINE OXIDASE INHIBITION” value (compound concentration 1 μM) was 4%.
For the compound `C#CCCCOC(=O)c1ccc(-c2nnn[nH]2)cc1` [GM], the “PERCENT XANTHINE OXIDASE INHIBITION” value is, setting by setting: (compound concentration 0.01 μM) 8%; (compound concentration 0.1 μM) 28%; (compound concentration 1 μM) 76%.
As to `O=C(Oc1cc[n+]([O-])cc1)c1ccc(-c2nnn[nH]2)cc1` [GN], the “PERCENT XANTHINE OXIDASE INHIBITION” value (compound concentration 1 μM) was determined as 9%.
`O=C(OC1CCCCC1)c1ccc(-c2nnn[nH]2)cc1` [GO]: the “PERCENT XANTHINE OXIDASE INHIBITION” value (compound concentration 0.01 μM) was determined as 6%, the “PERCENT XANTHINE OXIDASE INHIBITION” value (compound concentration 0.1 μM) is 18% and the “PERCENT XANTHINE OXIDASE INHIBITION” value (compound concentration 1 μM) is 82%.
With `O=C(OCC(F)(F)C(F)F)c1ccc(-c2nnn[nH]2)cc1` [GP], the “PERCENT XANTHINE OXIDASE INHIBITION” value was determined as 9% (compound concentration 0.01 μM), 65% (compound concentration 0.1 μM) and 92% (compound concentration 1 μM).
On the same counts, the results for `CCC#CCOC(=O)c1ccc(-c2nnn[nH]2)cc1` [GQ] are 0%, 35% and 78%.
On the same counts, the results for `C=C(C)C1CC=C(COC(=O)c2ccc(-c3nnn[nH]3)cc2)CC1` (stereo not shown) [GR] are 0%, 8% and 48%.
On the same counts, the results for `O=C(OCC(C(F)(F)F)C(F)(F)F)c1ccc(-c2nnn[nH]2)cc1` [GS] are 13%, 68% and 95%.
Take `O=C(Oc1cccc(Br)c1)c1ccc(-c2nnn[nH]2)cc1` [GT]: the “PERCENT XANTHINE OXIDASE INHIBITION” value (compound concentration 0.01 μM) was found to be 8%, the “PERCENT XANTHINE OXIDASE INHIBITION” value (compound concentration 0.1 μM) is 53% and the “PERCENT XANTHINE OXIDASE INHIBITION” value (compound concentration 1 μM) is 94%.
For `O=C(OCc1ccc(Br)cc1)c1ccc(-c2nnn[nH]2)cc1` [GU] the same measures were 17%, 69% and 94%.
On the same counts, the results for `O=C(OCC(Cl)(Cl)Cl)c1ccc(-c2nnn[nH]2)cc1` [GV] are 14%, 73% and 95%.
On the same counts, the results for `O=C(OCCN1C(=O)CCC1=O)c1ccc(-c2nnn[nH]2)cc1` [GW] are 5%, 9% and 39%.
For `O=C(OCc1ccccc1I)c1ccc(-c2nnn[nH]2)cc1` [GX], the “PERCENT XANTHINE OXIDASE INHIBITION” value (compound concentration 0.01 μM, 0.01 µM) was found to be 19%; the “PERCENT XANTHINE OXIDASE INHIBITION” value under setting [1] turned out to be 84%; the “PERCENT XANTHINE OXIDASE INHIBITION” value (compound concentration 1 μM) amounted to 100%.
As for `O=C(OC1CCC2CCCCC2C1)c1ccc(-c2nnn[nH]2)cc1` (stereo not shown) [GY], the “PERCENT XANTHINE OXIDASE INHIBITION” value reads like this: (compound concentration 0.01 μM) 19%; (compound concentration 0.1 μM) 11%; (compound concentration 1 μM) 76%.
With `O=C(OC(C1CCCCC1)C1CCCCC1)c1ccc(-c2nnn[nH]2)cc1` [GZ], the “PERCENT XANTHINE OXIDASE INHIBITION” value (compound concentration 1 μM) is given as 8%.
For `O=C(NC1CCCCC1)c1ccc(-c2nnn[nH]2)cc1` [HA], the “PERCENT XANTHINE OXIDASE INHIBITION” value runs as follows: (compound concentration 0.1 μM) 10%; (compound concentration 1 μM) 61%.
